Results published in paper PMC9610855, “Valorisation of the Inhibitory Potential of Fresh and Dried Fruit Extracts of Prunus spinosa L. towards Carbohydrate Hydrolysing Enzymes, Protein Glycation, Multiple Oxidants and Oxidative Stress-Induced Changes in Human Plasma Constituents” (Pharmaceuticals, 2022).

Key:
[1] = HO^• scavenging; conditions: mean ± SD of three replicates
Protocol: (§1) The scavenging efficiency of P. spinosa fruit extracts/fractions towards various ROS (O2^•−, HO^•, H2O2, HOCl, and NO^•) was tested using appropriate fluorimetric and spectrophotometric methods as described previously. Ascorbic acid and Trolox® served as positive controls. The results were expressed as half scavenging concentration (SC50) values, estimated using concentration-scavenging curves.

[2] = H2O2 scavenging; conditions: mean ± SD of three replicates
Protocol: as §1

[3] = O2^•− scavenging; conditions: mean ± SD of three replicates
Protocol: as §1

[4] = HOCl scavenging; conditions: mean ± SD of three replicates
Protocol: as §1

[5] = NO^• scavenging; conditions: mean ± SD of three replicates
Protocol: as §1

[6] = system: human neutrophils; design: method as in PMID 35630778; conditions: 50 μM; cited from earlier work
[7] = target: α-glucosidase; test: α-glucosidase inhibition assay (p-NPG hydrolysis, spectrophotometric); assay type: biochemical; conditions: mean ± SD (n = 3)
Protocol: The inhibition of α-glucosidase was evaluated according to the spectrophotometric method reported by Ma et al. with slight modifications. The enzyme activity measurement was based on the p-nitrophenyl-α-D-glucopyranoside (p-NPG) hydrolysis. In brief, 150 µL of a phosphate buffer (0.1 M, pH 6.9) solution of an extract or standard was mixed with the enzyme (0.43 U/mL, 50 µL) and pre-incubated for 15 min at 37 °C. Next, a 0.7 mM p-NPG solution in the buffer (50 µL) was added, and after 15 min of incubation, the reaction was stopped by adding Na2CO3 (0.2 M, 50 µL). Finally, the absorbance was read at 405 nm in a microplate reader. […] The inhibitory potential of the analytes towards α-glucosidase was expressed as a half inhibitory concentration (IC50), calculated from concentration-inhibition curves.

[8] = system: AGEs formation (protein glycation, fructose-BSA); test: inhibition of AGEs formation, fructose-bovine serum albumin (BSA) test system; conditions: mean ± SD (n = 3)
Protocol: The impact of the extracts/fractions on protein glycation was evaluated in the fructose-bovine serum albumin (BSA) test system with aminoguanidine as a positive control according to the fluorimetric method of Starowicz and Zieliński, modified by Rutkowska et al.. The fluorescence was measured at 37 °C in a microplate reader at 355 nm and 420 nm for excitation and emission, respectively. The results were reported as half inhibitory concentration (IC50) values, estimated using concentration-inhibition curves.

[9] = target: T1, α-amylase (Sus scrofa, UniProt P00690); test: α-amylase inhibition assay (EnzChek Ultra Amylase Assay Kit, fluorometric); assay type: biochemical; conditions: mean ± SD (n = 3)
T1 construct: pancreatin from porcine pancreas; purchased Sigma-Aldrich; host or cells: porcine pancreas extract (pancreatin)
T1 sequence (P00690 16-511): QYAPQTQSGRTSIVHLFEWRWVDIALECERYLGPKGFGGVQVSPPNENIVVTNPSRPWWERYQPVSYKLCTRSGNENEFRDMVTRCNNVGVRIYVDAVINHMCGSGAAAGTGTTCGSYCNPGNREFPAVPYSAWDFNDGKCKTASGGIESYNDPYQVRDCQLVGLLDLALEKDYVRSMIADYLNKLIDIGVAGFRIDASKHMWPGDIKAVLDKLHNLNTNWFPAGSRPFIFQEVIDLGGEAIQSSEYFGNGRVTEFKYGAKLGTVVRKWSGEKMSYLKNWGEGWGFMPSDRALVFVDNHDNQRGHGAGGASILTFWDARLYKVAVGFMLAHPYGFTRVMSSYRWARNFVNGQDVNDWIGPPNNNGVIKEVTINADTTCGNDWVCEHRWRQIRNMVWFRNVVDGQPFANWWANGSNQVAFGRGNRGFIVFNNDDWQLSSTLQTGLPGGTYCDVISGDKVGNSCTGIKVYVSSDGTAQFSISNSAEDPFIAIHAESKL
Protocol: The inhibitory activity of the analytes towards α-amylase was determined fluorometrically according to Truba et al. using an EnzChek™ Ultra Amylase Assay Kit. The test was based on measuring products formed after the enzymatically catalysed hydrolysis of the corn starch substrate DQTM (labeled with the fluorescent dye BODIPY® FL). The fluorescence of the hydrolysate was read at 37 °C in a microplate reader at 485 nm and 535 nm for excitation and emission, respectively. […] The inhibitory potential of the analytes towards α-amylase was expressed as a half inhibitory concentration (IC50), calculated from concentration-inhibition curves.

[10] = system: human plasma lipids (TBARS); test: lipid peroxidation (TBARS) in human plasma exposed to ONOO^−; conditions: 5 μg/mL, compared with the other standard polyphenols
Protocol: Therefore, to check the potential preventive effects of P. spinosa fruit extracts against oxidative and nitrative injury of biomolecules, an experimental model of human blood plasma exposed to oxidative stress induced by ONOO^− (100–150 μM; achievable locally in vivo, e.g., in inflamed blood vessels) was applied. The process was monitored by measuring the oxidative stress biomarkers, including the products of protein nitration (3-nitrotyrosine, 3-NT), lipid peroxidation (thiobarbituric acid reactive substances, TBARS), as well as the total antioxidant capacity of plasma (NEAC). The extracts and fractions from fresh sloes were selected for the study due to their high ability to inhibit glycolytic enzymes, potent anti-glycation activity, and significant ROS/RNS-scavenging properties. […] The influence on the levels of oxidative stress biomarkers in plasma was evaluated using the appropriate immunoenzymatic and spectrophotometric methods. […] The results were calculated using the standard curve of nitro-fibrinogen (3-NT-Fg) and expressed as 3-NT-Fg equivalents (nmol/mg of plasma proteins). The TBARS levels of plasma lipids were determined spectrophotometrically and calculated in nmol/mL of plasma. The impact on the NEAC value was measured using the FRAP assay, with the results calculated from the standard curve of ferrous sulphate and expressed in mM of Fe^2+ equivalents.

α-Glucosidase IC50 [7] | α-Amylase IC50 [9] | SMILES | Scavenging activity (SC50) HO^• [1] | Scavenging activity (SC50) H2O2 [2] | Scavenging activity (SC50) O2^•− [3] | Scavenging activity (SC50) HOCl [4] | Scavenging activity (SC50) NO^• [5] | downregulation (reduction) of the ROS level in human neutrophils [6] | AGEs Formation IC50 [8] | IC50 [9] | activity of model polyphenol in the TBARS test [10]
** (inactive up to 1000 µg/mL) |  | O=Cc1ccc(CO)o1 [5-Hydroxymethylfurfural (HMF), 5-hydroxymethylfurfural] | *** (inactive up to 1500 µg/mL) | *** (inactive up to 1500 µg/mL) | ** (inactive up to a concentration of 500 µg/mL) | ** (inactive up to a concentration of 500 µg/mL) | ** (inactive up to a concentration of 500 µg/mL) | 15% |  |  | 
 |  | N=C(N)NN [Aminoguanidine, aminoguanidine] |  |  |  |  |  |  | 78.89 ± 4.95 ^C µg/mL |  | 
 |  | O=C1O[C@H]([C@@H](O)CO)C(O)=C1O [Ascorbic acid, ascorbic acid] | 0.14 ± 0.005 ^B,C mg/mL | 0.014 ± 0.001 ^A,B mg/mL | 5.28 ± 0.25 ^A µg/mL | 6.32 ± 0.07 ^A µg/mL | 0.59 ± 0.04 ^A µg/mL |  |  |  | 
 |  | O=C(/C=C/c1ccc(O)c(O)c1)O[C@@H]1C[C@](O)(C(=O)O)C[C@@H](O)[C@H]1O [Chlorogenic acid, 5-O-caffeoylquinic acid] |  |  |  |  |  |  | 7.07 ± 0.74 ^A µg/mL | 229 µM | 
635.13 ± 34.43 ^H µg/mL | 31.28 ± 1.66 ^B µg/mL | OC[C@H]1O[C@@H](Oc2cc3c(O)cc(O)cc3[o+]c2-c2ccc(O)c(O)c2)[C@H](O)[C@@H](O)[C@@H]1O [Cyanidin 3-O-glucoside, cyanidin 3-O-β-D-glucopyranoside] | 0.17 ± 0.002 ^C mg/mL | 0.012 ± 0.001 ^A,B mg/mL | 10.11 ± 0.33 ^A µg/mL | 5.62 ± 0.11 ^A µg/mL | 1.40 ± 0.09 ^B µg/mL |  | 10.90 ± 0.85 ^A µg/mL |  | especially active
209.64 ± 5.64 ^G µg/mL |  | O=c1c(O[C@@H]2O[C@H](CO)[C@@H](O)[C@H](O)[C@H]2O)c(-c2ccc(O)c(O)c2)oc2cc(O)cc(O)c12 [Quercetin 3-O-glucoside (isoquercitrin), quercetin 3-O-β-D-glucopyranoside] |  |  |  |  |  |  | 3.09 ± 0.17 ^A µg/mL |  | 
 |  | O=c1c(O)c(-c2ccc(O)c(O)c2)oc2cc(O)cc(O)c12 [Quercetin, quercetin] | 0.05 ± 0.002 ^A mg/mL | 0.008 ± 0.001 ^A mg/mL | 7.89 ± 0.24 ^A µg/mL | 2.08 ± 0.14 ^A µg/mL | 0.48 ± 0.03 ^A µg/mL | 96% |  |  | 
 |  | Cc1c(C)c2c(c(C)c1O)CCC(C)(C(=O)O)O2 (stereo not shown) [Trolox] | 0.13 ± 0.003 ^B,C mg/mL | 0.020 ± 0.001 ^B mg/mL | 135.33 ± 5.59 ^F µg/mL | 21.49 ± 1.21 ^C µg/mL | 0.59 ± 0.02 ^A µg/mL |  |  |  | 
